Assay results reported in patent US20240101546A1, “HETEROARYL-ACETYLENES, PHARMACEUTICAL COMPOSITIONS THEREOF, AND THEIR THERAPEUTIC APPLICATIONS” (Eubulus Biotherapeutics Inc., priority 2020, published 2024).

system: lung cancer cell line NCI-H82; assay: Cell proliferation assay, NCI-H82 (CELL-TITER GLO); assay type: cell-based; conditions: Homo sapiens, NCI-H82, 72 h, NCI-H82 cells, 72 h incubation, cell viability by CELL-TITER GLO, top concentration 1 μM; read-out: EC50, Inhibition of NCl-H82 Cell Proliferation
Procedure, shortened: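 NCI-H82 cells, 1,000 per well in RPMI1640, were treated after overnight plating with a 3-fold dilution series from 1 μM. Viability read by CellTiter-Glo luminescence after 72 h. EC50 derived from the curves.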

| EC50 [nM] | Compound |
| --- | --- |
| ≤ 200 | C#Cc1nc(NC(=O)N2CCN(c3ccc(-c4cccc(N5CCCC5)c4)cc3)CC2)cs1 [Compound B15, N-(2-Ethynylthiazol-4-yl)-4-(3′-(pyrrolidin-1-yl)-[1,1′-biphenyl]-4-yl)piperazine-1-carboxamide] |
| ≤ 200 | C#Cc1nc(NC(=O)N2CCN(c3ccc(-c4cccc5c4cnn5C)cc3)CC2)cs1 [Compound B18, N-(2-Ethynylthiazol-4-yl)-4-(4-(1-methyl-1H-indazol-4-yl)phenyl)piperazine-1-carboxamide] |
| ≤ 200 | C#Cc1nc(NC(=O)N2CCN(c3ccc(-c4cccc5ncsc45)cc3)C[C@H]2CO)cs1 [Compound B23, (S)-4-(4-(Benzo[d]thiazol-7-yl)phenyl)-N-(2-ethynylthiazol-4-yl)-2-(hydroxy-methyl)piperazine-1-carboxamide] |
| ≤ 200 | C#Cc1nc(NC(=O)N2CCN(c3ccc(-c4cccc5ncsc45)cc3)C[C@@H]2CO)cs1 [Compound B24, (R)-4-(4-(Benzo[d]thiazol-7-yl)phenyl)-N-(2-ethynylthiazol-4-yl)-2-(hydroxy-methyl)piperazine-1-carboxamide] |
| ≤ 200 | C#Cc1nc(NC(=O)N2CCN(c3ccc(-c4c(C#N)ccc5nc(N)sc45)cc3)CC2)cs1 [Compound B25, 4-(4-(2-Amino-6-cyanobenzo[d]thiazol-7-yl)phenyl)-N-(2-ethynylthiazol-4-yl)-piperazine-1-carboxamide] |
| ≤ 200 | C#Cc1nc(NC(=O)N2CCN(c3ccc(-c4cccc5nc(N)sc45)cc3)CC2)cs1 [Compound B27, 4-(4-(2-Aminobenzo[d]thiazol-7-yl)phenyl)-N-(2-ethynylthiazol-4-yl)piperazine-1-carboxamide] |
| ≤ 200 | C#Cc1nc(NC(=O)N2CCN(c3ccc(-c4cccc5nnsc45)cc3)CC2)cs1 [Compound B28, 4-(4-(Benzo[d][1,2,3]thiadiazol-7-yl)phenyl)-N-(2-ethynylthiazol-4-yl)piperazine-1-carboxamide] |
| ≤ 200 | C#Cc1nc(NC(=O)N2CCN(c3ccc(-c4cccc(N5CCCC5)c4)cc3)C[C@H]2CO)cs1 [Compound B52, (S)—N-(2-Ethynylthiazol-4-yl)-2-(hydroxymethyl)-4-(3′-(pyrrolidin-1-yl)-[1,1′-biphenyl]-4-yl)piperazine-1-carboxamide] |
| ≤ 200 | C#Cc1nc(NC(=O)N2CCN(c3ccc(-c4cccc(N5CCCC5)c4)cc3C#N)C[C@@H]2CO)cs1 [Compound B53, (R)-4-(3-Cyano-3′-(pyrrolidin-1-yl)-[1,1′-biphenyl]-4-yl)-N-(2-ethynylthiazol-4-yl)-2-(hydroxymethyl)piperazine-1-carboxamide] |
| ≤ 200 | C#Cc1nc(NC(=O)N2CCN(c3ccc(-c4cccc(N5CCCC5)c4)cc3)C[C@@H]2CO)cs1 [Compound B54, (R)—N-(2-Ethynylthiazol-4-yl)-2-(hydroxymethyl)-4-(3′-(pyrrolidin-1-yl)-[1,1′-biphenyl]-4-yl)piperazine-1-carboxamide] |
| ≤ 200 | C#Cc1nc(NC(=O)N2CCN(c3ccc(-c4cccc(N5CCCC5)c4)cn3)C[C@@H]2CO)cs1 [Compound B56, (R)—N-(2-Ethynylthiazol-4-yl)-2-(hydroxymethyl)-4-(5-(3-(pyrrolidin-1-yl)-phenyl)pyridin-2-yl)piperazine-1-carboxamide] |

Further lines, the compound ahead of its results:

| Compound | EC50 [nM] |
| --- | --- |
| C#Cc1nc(NC(=O)N[C@H](C(=O)NC)c2ccc(-c3cccc4ncsc34)cc2)cs1 [Compound A216, (S)-2-(4-(Benzo[d]thiazol-7-yl)phenyl)-2-(3-(2-ethynylthiazol-4-yl)ureido)-N-methylacetamide] | ≤ 200 |
| C#Cc1nc(NC(=O)N[C@@H](C(=O)NC)c2ccc(-c3cccc(C4(C#N)CC4)c3)cc2)cs1 [Compound A217, (R)-2-(3′-(1-Cyanocyclopropyl)-[1,1′-biphenyl]-4-yl)-2-(3-(2-ethynylthiazol-4-yl)ureido)-N-methylacetamide] | ≤ 200 |
| C#Cc1nc(NC(=O)N[C@@H](C(=O)NC)c2ccc(-c3cccc(C4(O)CC4)c3)cc2)cs1 [Compound A218, (R)-2-(3-(2-Ethynylthiazol-4-yl)ureido)-2-(3′-(1-hydroxycyclopropyl)-[1,1′-biphenyl]-4-yl)-N-methylacetamide] | ≤ 200 |
| C#Cc1nc(NC(=O)N[C@@H](C(=O)NC)c2ccc(-c3cccc(C(=O)CC)c3)cc2)cs1 [Compound A219, (R)-2-(3-(2-Ethynylthiazol-4-yl)ureido)-N-methyl-2-(3′-propionyl-[1,1′-biphenyl]-4-yl)acetamide] | ≤ 200 |
| C#Cc1nc(NC(=O)N[C@@H](C(=O)N(C)C)c2ccc(-c3cccc4ncsc34)cc2)cs1 [Compound A220, (R)-2-(4-(Benzo[d]thiazol-7-yl)phenyl)-2-(3-(2-ethynylthiazol-4-yl)ureido)-N,N-dimethylacetamide] | ≤ 200 |
| C#Cc1nc(NC(=O)N[C@@H](COC(N)=O)c2ccc(-c3cccc(C#N)c3)cc2)cs1 [Compound A221, (R)-2-(3′-Cyano-[1,1′-biphenyl]-4-yl)-2-(3-(2-ethynylthiazol-4-yl)ureido)ethyl carbamate] | ≤ 200 |
| C#Cc1nc(NC(=O)NC(COC(N)=O)c2ccc(-c3cccc(C4(C#N)CC4)c3)cc2)cs1 (centres unmarked) [Compound A222] | ≤ 200 |
| C#Cc1nc(NC(=O)N[C@@H](COC(N)=O)c2ccc(-c3cccc4ncsc34)cc2)cs1 [Compound A223, (R)-2-(4-(Benzo[d]thiazol-7-yl)phenyl)-2-(3-(2-ethynylthiazol-4-yl)ureido)ethyl carbamate] | ≤ 200 |
| C#Cc1nc(NC(=O)N[C@@H](COC(=O)NC)c2ccc(-c3cccc4ncsc34)cc2)cs1 [Compound A224, (R)-2-(4-(Benzo[d]thiazol-7-yl)phenyl)-2-(3-(2-ethynylthiazol-4-yl)ureido)ethyl methylcarbamate] | ≤ 200 |
| C#Cc1nc(NC(=O)N[C@@H](COC(N)=O)c2ccc(-c3cccc4nnsc34)cc2)cs1 [Compound A225, (R)-2-(4-(Benzo[d][1,2,3]thiadiazol-7-yl)phenyl)-2-(3-(2-ethynylthiazol-4-yl)-ureido)ethyl carbamate] | ≤ 200 |
| C#Cc1nc(NC(=O)N[C@@H](COC(N)=O)c2ccc(-c3cccc4nsnc34)cc2)cs1 [Compound A226, (R)-2-(4-(Benzo[c][1,2,5]thiadiazol-4-yl)phenyl)-2-(3-(2-ethynylthiazol-4-yl)-ureido)ethyl carbamate] | ≤ 200 |
| C#Cc1nc(NC(=O)N[C@@H](COC(N)=O)c2ccc(-c3cccc4cccnc34)cc2)cs1 [Compound A227, (R)-2-(3-(2-Ethynylthiazol-4-yl)ureido)-2-(4-(quinolin-8-yl)phenyl)ethyl carbamate] | ≤ 200 |
| C#Cc1nc(NC(=O)N[C@@H](COC(N)=O)c2ccc(-c3cccc4cnccc34)cc2)cs1 [Compound A229, (R)-2-(3-(2-Ethynylthiazol-4-yl)ureido)-2-(4-(isoquinolin-5-yl)phenyl)ethyl carbamate] | ≤ 200 |
| C#Cc1nc(NC(=O)N[C@@H](COC(N)=O)c2ccc(-c3cccc4ncccc34)cc2)cs1 [Compound A230, (R)-2-(3-(2-Ethynylthiazol-4-yl)ureido)-2-(4-(quinolin-5-yl)phenyl)ethyl carbamate] | ≤ 200 |
| C#Cc1nc(NC(=O)N[C@@H](COC(N)=O)c2ccc(-c3cccc4c3cnn4C)cc2)cs1 [Compound A231, (R)-2-(3-(2-Ethynylthiazol-4-yl)ureido)-2-(4-(1-methyl-1H-indazol-4-yl)phenyl)-ethyl carbamate] | ≤ 200 |
| C#Cc1nc(NC(=O)N[C@@H](COC(N)=O)c2ccc(C3CCCc4c3cnn4C)cc2)cs1 (stereo partly drawn) [Compound A232, (2R)-2-(3-(2-Ethynylthiazol-4-yl)ureido)-2-(4-(1-methyl-4,5,6,7-tetrahydro-1H-indazol-4-yl)phenyl)ethyl carbamate] | ≤ 200 |
| C#Cc1nc(NC(=O)N[C@@H](COC(N)=O)c2ccc(C3=CCCc4c3cnn4C)cc2)cs1 [Compound A233, (R)-2-(3-(2-Ethynylthiazol-4-yl)ureido)-2-(4-(1-methyl-6,7-dihydro-1H-indazol-4-yl)phenyl)ethyl carbamate] | ≤ 200 |
| C#Cc1nc(NC(=O)N[C@@H](COC(N)=O)c2ccc(-c3cccc(N4CCCC4)n3)cc2)cs1 [Compound A234, (R)-2-(3-(2-Ethynylthiazol-4-yl)ureido)-2-(4-(6-(pyrrolidin-1-yl)pyridin-2-yl)-phenyl)ethyl carbamate] | ≤ 200 |
| C#Cc1nc(NC(=O)N[C@@H](COC(N)=O)c2ccc(-c3ccnc(N4CCCC4)c3)cc2)cs1 [Compound A235, (R)-2-(3-(2-Ethynylthiazol-4-yl)ureido)-2-(4-(2-(pyrrolidin-1-yl)pyridin-4-yl)-phenyl)ethyl carbamate] | ≤ 200 |
| C#Cc1nc(NC(=O)N[C@@H](COC(N)=O)c2ccc(-c3cccc(C4(C#N)CC4)c3)cn2)cs1 [Compound A236, (R)-2-(5-(3-(1-Cyanocyclopropyl)phenyl)pyridin-2-yl)-2-(3-(2-ethynylthiazol-4-yl)ureido)ethyl carbamate] | ≤ 200 |
| C#Cc1nc(NC(=O)NCC2CCC(c3cccc(C4(C#N)CC4)c3)CC2)cs1 (centres unmarked) [Compound A238, 1-((4-(3-(1-Cyanocyclopropyl)phenyl)cyclohexyl)methyl)-3-(2-ethynylthiazol-4-yl)urea] | ≤ 200 |
| C#Cc1nc(NC(=O)NCC2CC=C(c3cccc(C4(C#N)CC4)c3)CC2)cs1 (centres unmarked) [Compound A239, 1-((3′-(1-Cyanocyclopropyl)-2,3,4,5-tetrahydro-[1,1′-biphenyl]-4-yl)methyl)-3-(2-ethynylthiazol-4-yl)urea] | ≤ 200 |
| C#Cc1nc(NC(=O)NCC2CCN(c3cccc(C4(C#N)CC4)c3)CC2)cs1 [Compound A240, 1-((1-(3-(1-Cyanocyclopropyl)phenyl)piperidin-4-yl)methyl)-3-(2-ethynylthiazol-4-yl)urea] | ≤ 200 |
| C#Cc1nccc(NC(=O)N[C@@H](CO)c2ccc(-c3cccc4ncsc34)cc2)n1 [Compound A241, (R)-1-(1-(4-(Benzo[d]thiazol-7-yl)phenyl)-2-hydroxyethyl)-3-(2-ethynyl-pyrimidin-4-yl)urea] | ≤ 200 |
